Data set [1] relates to Hepatitis B virus. The note with it: literature; cited from earlier work.
The conditions of data set [2]: HIV infected patients; cited from earlier work.
Data set [3] deals with HBV DNA. The experiment in a line: Cell culture experiments with N-nonyl-DNJ: total HBV DNA and immune precipitated DNA (IPDNA). It counts as cell-based. From the text: (§1) There are two measures of drug efficacy: reduction in total HBV DNA (measured by quantitative PCR), and reduction in HBV DNA from capsids with intact surface glycoproteins, which is the active form of the virus (measured by an ELISA-like immune precipitation assay followed by quantitative PCR).

Data set [4] concerns woodchuck hepatitis virus (WHV). The experiment in a line: Woodchuck model, N-nonyl-DNJ monotherapy, BID oral dosing, total HBV DNA and IPDNA. It counts as in vivo. The procedure: Therefore, five groups of four animals each (all groups had both sexes, all but the control had two of each sex) were assigned to 0, 12.5, 25, 50, and 100 mg/kg/day with BID oral dosing. These were lab-reared wild animals. All animals were infected with woodchuck hepatitis virus (WHV) as neonates, and had been tested positive on serological tests for WHV surface antigen. Blood samples were drawn one week prior to dosing (−1 week), immediately before dosing (0 weeks), weekly during dosing (1, 2, 3, and 4 weeks), and after the end of dosing (5, 6, 8, and 10 weeks).
as §1
Before models are fitted to the data, a log transform was applied because: 1) the variation in IPDNA increases with increasing IPDNA values; the log transformation gives values with a nearly constant variation, and 2) it is expected that drug effects will appear as a constant multiplier of the IPDNA level. Because there are zero values of IPDNA, a small value (about ½ of the smallest non-zero value) was added to all values before the log transform.
Two approaches were used to model the changes in slope to week with dose of N-nonyl-DNJ: a linear modeling approach and a nonlinear model. Both approaches assume that the (linear) rate of change of the Log(IPDNA) measure over the dosing period is the “right” measure to reflect the effect of the drug on the virus. Both approaches are fit in stages, and the first stage is common to both approaches. First, a simple straight line regression model is fit using weeks 0-4 to predict log(IPDNA+10) separately for each animal by run combination. In the second stage, the response variable is the slope fitted in the first stage.
For the linear approach, a model is fit with slope to week as the response where run is considered a block, dose has a significant effect (almost all of this effect is due to a slope to dose), and the relevant error for testing the effect of dose is the variation among animals treated alike (after the adjustment for the runs as blocks). This is similar to using the calibration data within each run to first adjust each run's data to a common virus DNA concentration; the difference is that here the data from the woodchucks are used for the run adjustment rather than only the calibration data.
For the nonlinear approach, a four parameter logistic model is fit with the slope to week as the response and the dose as the predictor. Again, run is considered a block, but because no run has all weeks, it is not possible to fully reflect the blocking in the nonlinear approach. […] The average maximum slope observed was 2.71 additional Log(IPDNA μg/mL)/week, or an increase of about 150%/week, the average minimum slope observed with N-nonyl-DNJ is 0.31 fewer Log(IPDNA μg/mL)/week), or about a decrease of about 25%/week. The slopes, the fitted model, the parameter estimates from the-model, and the approximate standard errors for these parameters are all shown in FIG. 3. […] Whether in woodchucks or humans, the effective dose of both the N-alkyl-DNJ and nucleoside or nucleotide antiviral agent administered in combination therewith can be administered in two equal daily subdoses (i.e., B.I.D.).

The conditions of data set [5]: in vivo; cited from earlier work.

These results are taken from patent US6689759B1, “Methods of Treating hepatitis virus infections with N-substituted-1,5-dideoxy-1,5-imino-d-glucitol compounds in combination therapy” (G. D. Searle & Co., priority 2000, dated 2004).

`CCCCN1C[C@H](O)[C@@H](O)[C@H](O)[C@H]1CO` [n-butyl-DNJ, N-butyl-1-5-dideoxy-1,5-imino-D-glucitol]: the “usefulness against Hepatitis B infection” value in data set [1] was “effective”. In addition, the tolerability entry in data set [2] was “well tolerated”.

Consider `Cc1cn([C@H]2C[C@H](N=[N+]=[N-])[C@@H](CO)O2)c(=O)[nH]c1=O` [zidovudine, 3′-azido-3′-deoxythymidine, reference compound], for which the “usefulness against Hepatitis B infection” value in data set [1] is on record as “appears to have little use against the same virus”.

As to `CCCCCCCCCN1C[C@H](O)[C@@H](O)[C@H](O)[C@H]1CO` [N-nonyl-DNJ, N-(n-nonyl-)-1,5-dideoxy-1,5-imino-D-glucitol], in data set [3], the “effect on immune precipitated DNA (IPDNA)” value is reported as “marked effect” and the “effect on total HBV DNA” value is listed as “little or no effect”. For the same compound, the “average maximum slope observed” value in data set [4] (additional Log(IPDNA)/week, i.e. an increase, low dose end of the model) is 2.71 Log(IPDNA μg/mL)/week. The “average minimum slope observed” value in data set [4] (fewer Log(IPDNA)/week, i.e. a decrease) was 0.31 Log(IPDNA μg/mL)/week. For the same compound, the EC50 in data set [4] (four parameter logistic model, slope of Log(IPDNA+10) to week versus dose) came out at 7.88 mg/kg/BID dose. Further, the “decrease of IPDNA at the average minimum slope” value in data set [4] (in vivo) is recorded as “about 25 %/week”. Further, the “increase of IPDNA at the average maximum slope” value in data set [4] (low dose end of the model) was “about 150 %/week”. The “effect on total HBV DNA measurements” value in data set [4] (woodchuck, all dose levels, quantitative PCR) was “no effect”. Further, in data set [4] (woodchuck, change in slope statistically significant (p<0.005)), the “slope of IPDNA over weeks 0-4” value was “generally increasing for low dose animals and decreasing for high dose animals”. For the same compound, the “approximate effective monotherapy dose” value in data set [4] (woodchucks) is “about 16 mg/kg/day”.

Take `O=c1[nH]c(=O)n([C@@H]2O[C@H](CO)[C@@H](O)[C@@H]2F)cc1I` [fialuridine]: the toxicity result in data set [5] is reported as “drug-related liver failure leading to death in some patients”.
